Test systems include SK-OV-3; SNB-75; HL-60; OVCAR-8; NCI/ADR-RES; SK-MEL-5; EKVX; HCT-15; SN12C; SK-MEL-28; HCC 2998; MDA-MB-435; A498; KM12; NCI-H522; NCI-H460; NCI-H226; DU-145; MCF7.
Holding throughout (assay): growth of human tumour cells (NCI), 48 h

Molecules are shown by their SMILES.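 Where inhibition never reached the appropriate level, the endpoint shown equals the highest concentration tested. Otherwise, values were interpolated linearly from a five-concentration, 48-hour dose response in 96-well plates. GI50 = concentration required for 50% inhibition of growth.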 Calls of active or inactive are those of the source. Cut-off read from the data, not from the text of the source: active = GI50 up to about 1.1 µM and inactive = higher. A value given as a limit tells only on which side of the number the result lay.

With `O=C(O)c1ccc(NC(NC(=O)C(C(F)(F)F)C(F)(F)F)(C(F)(F)F)C(F)(F)F)cc1`, the GI50 in the assay with SK-OV-3, in the assay on SNB-75, in the assay with HL-60, in the assay on OVCAR-8, with NCI/ADR-RES and with SK-MEL-5 was > 100 µM (inactive) throughout. Moreover, the GI50 is > 100 µM (inactive) in the assay with EKVX; greater than 100 µM with HCT-15; > 100 µM (inactive) in the assay on SN12C; > 100 µM (inactive) with SK-MEL-28; > 100 µM (inactive) in the assay on HCC 2998; > 100 µM (inactive) in the assay with MDA-MB-435. The GI50 in the assay on A498 was > 100 µM (inactive).

With `CCN(CC)C(=S)SS(=O)(=O)c1ccc(C)cc1`, the GI50 with SK-OV-3 is > 100 µM (inactive); in the assay with OVCAR-8, 19.5 µM (inactive); in the assay with NCI/ADR-RES, 35.6 µM (inactive); in the assay on KM12, 14.2 µM (inactive); with SK-MEL-5 it was 0.644 µM (active); in the assay on EKVX, > 100 µM (inactive). Moreover, the GI50 in the assay with HCT-15 is 36.7 µM; in the assay on NCI-H522, < 0.01 µM (active); with NCI-H460, 27.2 µM (inactive); with NCI-H226 it was 52 µM (inactive); in the assay on SN12C, 17.5 µM (inactive); in the assay with SK-MEL-28, 18.5 µM (inactive). The GI50 was 42.6 µM (inactive) in the assay with DU-145, 36.9 µM (inactive) in the assay on HCC 2998, 31.5 µM (inactive) in the assay with MDA-MB-435 and > 100 µM (inactive) in the assay on A498.

As to `CC1CN=C(Nc2ccc(F)cc2F)S1` (centres undefined), the GI50 was > 100 µM (inactive) in the assay with MCF7; > 100 µM (inactive) in the assay with SK-OV-3; 70.3 µM (inactive) in the assay with SNB-75; > 100 µM (inactive) with HL-60; > 100 µM (inactive) in the assay on OVCAR-8; > 100 µM (inactive) in the assay on NCI/ADR-RES. Moreover, the GI50 in the assay with KM12 is > 100 µM (inactive); with SK-MEL-5, > 100 µM (inactive); in the assay with EKVX, 75 µM (inactive); with HCT-15, greater than 100 µM; with NCI-H460, > 100 µM (inactive); in the assay on SN12C, > 100 µM (inactive). In addition, the GI50 in the assay on SK-MEL-28, in the assay on DU-145, in the assay on HCC 2998 and in the assay with A498 was > 100 µM (inactive) throughout.

Regarding `Cc1c(N2C(=O)/C(=C/C=C/c3ccccc3)N=C2c2ccccc2)c(=O)n(-c2ccccc2)n1C`, the GI50 was 28.8 µM (inactive) in the assay on MCF7; 23 µM (inactive) in the assay with SK-OV-3; 3.78 µM (inactive) with SNB-75; 11.8 µM (inactive) with HL-60; 26.1 µM (inactive) in the assay with OVCAR-8; 21.7 µM (inactive) in the assay on NCI/ADR-RES. Besides, the GI50 in the assay on KM12 was 25.5 µM (inactive); in the assay on SK-MEL-5 it was 16.3 µM (inactive); in the assay with EKVX, 15.6 µM (inactive); in the assay on HCT-15, 5.45 µM; in the assay with NCI-H522, 16 µM (inactive); in the assay on NCI-H460, 29.4 µM (inactive). Also, the GI50 with NCI-H226 was 24.7 µM (inactive); in the assay on SN12C it was 24.5 µM (inactive); in the assay with DU-145 it was 40.8 µM (inactive); in the assay on MDA-MB-435 it was 17 µM (inactive).

On to `CCCCCCCCCCCCCCCCOCC(Cl)COP(=O)(O)OP(=O)(O)OCC1OC(n2cc(C)c(=O)[nH]c2=O)CC1O` (centres undefined), for which the GI50 in the assay on MCF7 was > 100 µM (inactive); in the assay with SK-OV-3, > 100 µM (inactive); in the assay with SNB-75 it was 26.7 µM (inactive); in the assay on HL-60, > 100 µM (inactive); in the assay with OVCAR-8, 75.9 µM (inactive); in the assay on NCI/ADR-RES, 71.3 µM (inactive). Further, the GI50 in the assay on KM12 is 95.7 µM (inactive); in the assay with SK-MEL-5 it was > 100 µM (inactive); with EKVX, > 100 µM (inactive); in the assay on HCT-15, greater than 100 µM; in the assay on NCI-H522, > 100 µM (inactive); in the assay with NCI-H460, > 100 µM (inactive). Moreover, the GI50 was 28.8 µM (inactive) with NCI-H226; 70 µM (inactive) in the assay on SN12C; 55.2 µM (inactive) with SK-MEL-28; > 100 µM (inactive) in the assay with HCC 2998; 57.1 µM (inactive) in the assay on MDA-MB-435; > 100 µM (inactive) with A498.

For the molecule `Cc1ccc(N2C(=O)/C(=C/c3ccc(N(CCC#N)CCC#N)cc3)N=C2COc2ccc(Cl)cc2Cl)cc1`, the GI50 in the assay on SK-OV-3, in the assay with SNB-75, in the assay with HL-60, in the assay on OVCAR-8, in the assay on KM12 and in the assay with SK-MEL-5 was > 100 µM (inactive) each time. Also, the GI50 is > 100 µM (inactive) in the assay on EKVX; greater than 100 µM in the assay with HCT-15; > 100 µM (inactive) with NCI-H522; > 100 µM (inactive) in the assay on NCI-H460; > 100 µM (inactive) in the assay on NCI-H226; > 100 µM (inactive) with SN12C. Also, the GI50 in the assay on SK-MEL-28 was > 100 µM (inactive).

With `COc1nc(=O)n(C2CC(N=[N+]=[N-])C(CO)O2)cc1C` (centres undefined), the GI50 in the assay with MCF7, with HL-60, in the assay on OVCAR-8, in the assay on NCI/ADR-RES, in the assay with KM12 and with SK-MEL-5 was > 100 µM (inactive) each time. In addition, the GI50 with EKVX is > 100 µM (inactive); in the assay with HCT-15 it was greater than 100 µM; in the assay on NCI-H522, > 100 µM (inactive); in the assay on NCI-H460, > 100 µM (inactive); in the assay on NCI-H226, > 100 µM (inactive); in the assay with SN12C, > 100 µM (inactive). The GI50 with SK-MEL-28, with DU-145 and in the assay with MDA-MB-435 was > 100 µM (inactive) throughout.

On to `O=C(Nc1ccc([N+](=O)[O-])cc1)Nn1cnnc1`, for which the GI50 in the assay on MCF7 was 73.6 µM (inactive); in the assay on SK-OV-3, > 100 µM (inactive); in the assay on SNB-75 it was > 100 µM (inactive); in the assay with HL-60 it was > 100 µM (inactive); in the assay on OVCAR-8, 27.3 µM (inactive); in the assay on KM12, 26.1 µM (inactive). The GI50 in the assay on SK-MEL-5 is > 100 µM (inactive); with EKVX it was > 100 µM (inactive); in the assay with HCT-15 it was 45.6 µM; in the assay with NCI-H522, 49.8 µM (inactive); with NCI-H460, 37.6 µM (inactive); in the assay on NCI-H226 it was < 0.01 µM (active). Further, the GI50 in the assay with SN12C was > 10 µM (inactive); in the assay on SK-MEL-28, > 100 µM (inactive); with DU-145 it was 64 µM (inactive); with HCC 2998 it was 55.1 µM (inactive); in the assay with MDA-MB-435, 44.9 µM (inactive); in the assay on A498 it was 34.1 µM (inactive).

With `CC(=O)n1nc(-c2ccccc2)n(/N=C/c2ccc([N+](=O)[O-])cc2)c1=O`, the GI50 in the assay with SK-OV-3 is 52.8 µM (inactive); with SNB-75 it was > 100 µM (inactive); with HL-60, > 100 µM (inactive); in the assay on OVCAR-8, 98.2 µM (inactive); in the assay with NCI/ADR-RES it was > 100 µM (inactive); with KM12 it was > 100 µM (inactive). Also, the GI50 is > 100 µM (inactive) in the assay with SK-MEL-5; 31.1 µM (inactive) in the assay with EKVX; greater than 100 µM in the assay with HCT-15; 51.3 µM (inactive) in the assay with NCI-H522; > 100 µM (inactive) in the assay on NCI-H460; > 100 µM (inactive) in the assay on NCI-H226. Moreover, the GI50 with SN12C, in the assay with SK-MEL-28, with DU-145, with HCC 2998, in the assay on MDA-MB-435 and with A498 was > 100 µM (inactive) in each case.

With `CC1=CC(=O)N2[C@H](OC[C@@H]2C(C)C)O1`, the GI50 in the assay on SK-OV-3, with SNB-75, with HL-60, in the assay with OVCAR-8, with KM12 and in the assay on SK-MEL-5 was > 100 µM (inactive) each time. Moreover, the GI50 with EKVX is > 10 µM (inactive); with HCT-15, greater than 100 µM; in the assay with NCI-H522, > 100 µM (inactive); in the assay with NCI-H460 it was > 100 µM (inactive); with NCI-H226, > 100 µM (inactive); in the assay on SN12C, > 100 µM (inactive). The GI50 with SK-MEL-28 is > 100 µM (inactive).

For the molecule `Fc1ccc(-c2sc(-c3ccsc3)cc2Cc2ccsc2)cc1`, the GI50 with MCF7, in the assay with SK-OV-3, in the assay on SNB-75, in the assay on HL-60, in the assay on OVCAR-8 and with KM12 was > 10 µM (inactive) throughout. Moreover, the GI50 was > 10 µM (inactive) in the assay with SK-MEL-5; > 10 µM (inactive) in the assay with EKVX; greater than 10 µM in the assay on HCT-15; > 10 µM (inactive) in the assay on SN12C; > 10 µM (inactive) with SK-MEL-28; > 10 µM (inactive) with DU-145. In addition, the GI50 in the assay with HCC 2998 and with MDA-MB-435 was > 10 µM (inactive) each time.

For `CSC(SC)=C(C(=O)O)P(=O)(O)O`, the GI50 in the assay with MCF7, in the assay with SK-OV-3, in the assay on HL-60, in the assay with OVCAR-8, in the assay with NCI/ADR-RES and with KM12 was > 100 µM (inactive) throughout. Besides, the GI50 in the assay with SK-MEL-5 is > 100 µM (inactive); in the assay on EKVX, > 100 µM (inactive); in the assay with HCT-15 it was greater than 100 µM; with NCI-H522, > 100 µM (inactive); in the assay with NCI-H460, > 100 µM (inactive); in the assay with NCI-H226, > 100 µM (inactive). Besides, the GI50 in the assay on SN12C, in the assay on SK-MEL-28, in the assay on DU-145, in the assay with HCC 2998 and in the assay on A498 was > 100 µM (inactive) each time.

In the case of `c1nc(OCC2CCCCC2)c2nc[nH]c2n1`, the GI50 with SK-OV-3 is 43.7 µM (inactive); with SNB-75, 51.4 µM (inactive); with HL-60 it was > 100 µM (inactive); in the assay with OVCAR-8 it was 47.2 µM (inactive); with NCI/ADR-RES, 61.4 µM (inactive); with KM12, 54.1 µM (inactive). In addition, the GI50 is 26.1 µM (inactive) in the assay with SK-MEL-5; 53 µM (inactive) with EKVX; 46.3 µM in the assay on HCT-15; 44.4 µM (inactive) in the assay with NCI-H522; 72.6 µM (inactive) with NCI-H460; 26.9 µM (inactive) with NCI-H226. The GI50 in the assay with SN12C is 57.8 µM (inactive); in the assay with SK-MEL-28, > 100 µM (inactive); in the assay with DU-145, 73.8 µM (inactive); in the assay with HCC 2998 it was > 100 µM (inactive); in the assay with MDA-MB-435, 46.7 µM (inactive).

Values taken from ChEMBL document CHEMBL1201862, “PubChem BioAssay data set” (2004).
